One data set deals with T1, casein kinase 1ε (Homo sapiens, UniProt P49674).
T1 construct: made in house
The data set is described as follows: Casein Kinase Epsilon 33P-ATP Filter Plate Assay. Format: biochemical. The source says:
Casein Kinase Epsilon ^33P-ATP Filter Plate Assay for Screening CK1 Inhibitors Purpose: This assay measures the effect of compounds to inhibit the phosphorylation of the substrate casein by the enzyme casein kinase 1ε using an in vitro ^33P-ATP filtration assay.
Equipment: • Beckman Biomek 2000 Liquid Handling Robot • Beckman Multimek 96 Automated 96 Channel Pipettor • Millipore Vacuum Manifold Basic Kit # MAVM0960R • Titertek Multidrop Liquid Dispenser • Packard TopCount NXT Liquid Scintillation Counter
Enzyme: • Casein Kinase 1ε final concentration 0.58 mg/ml obtained from fermentation and purification processes performed by Aventis Pharmaceuticals Inc., France. The above are stored as 100 μL aliquots at minus 80° C.
Compounds: • Compounds for testing are supplied as frozen 10 mM compound stock dissolved in 100% DMSO. Assay Conditions:
Final total assay volume per well is equal to 50 μL made up as follows: • 5 μL of diluted compound stock ([…], 0.1, 0.01 or 0.001 μM), • 5 μL of dephosphorylated casein final concentration 0.2 μg/μL, • 20 μL of CK1ε final concentration 3 ng/μL, and • 20 μL of γ-^33P-ATP final concentration 0.02 μCi/μL mixed with cold ATP (10 μM final). Methodology: • 1. 500 mL of fresh assay buffer is made: 50 mM Tris pH 7.5, 10 mM MgCl2, 2 mM DTT and 1 mM EGTA • 2. Compounds to be evaluated are obtained as 10 μL of 10 mM stock dissolved in 100% DMSO. Using a Biomek 2000 liquid handling robot, serial dilutions are made to yield 10, 1, 0.1, 0.01 and 0.001 μM final compound dilutions added as 5 μL additions to Falcon U bottom plates. […] A routine screening assay will consist of 32 compounds, which equals 4 assay plates. • 3. Assay plate maps are set up according to the following pattern
• 4. […] Finally 20 μL […] (0.02 μCi/μL)/10 μM cold ATP are added (equals approximately 2×10^6 CPM per well). • 6. The Falcon U-Bottom assay plate containing the above 50 μL reaction volume is vortexed and then incubated at room temperature for 2 hours. • 7. At the end of 2 hours, the reaction is stopped by the addition of 65 μL of ice cold 2 mM cold ATP (made up in assay buffer) to the assay plates using a Beckman Multimek • 8. At the same time 25 μL 100% ice cold TCA made up in distilled H2O is added to a matching number of Millipore MAPH filter plates. • 9. Using a handheld 8-channel pipettor, 100 μL of the reaction mixture is transferred from the Falcon U-Bottom Plate to the Millipore MAPH filter plates presoaked with TCA. • 10. The Millipore MAPH filter plates are mixed gently and allowed to sit at room temperature for at least 30 minutes to precipitate the proteins. • 11. After 30 minutes the filter plates are placed on a Millipore vacuum manifold and filtered at no more than 8 mm Hg as the MAPH filters tend to “air lock” at higher vacuum settings. • 12. The filter plates are sequentially washed and filtered with 2×150 μL 20% TCA, 2×150 μL 10% TCA and 2×150 μL 5% TCA (total of 6 washes per plate/900 μL per well). • 13. Plates are allowed to dry overnight at room temperature. The next day 40 μL Packard Microscint-20 Scintillation Fluid is added per well using a Titertek Multidrop dispenser; the plates are sealed and counted for 2 minutes/well in a Packard Topcount NXT Scintillation Counter (CPM values/well are captured). Calculation: • 1. Counts Per Minute (CPM) data is captured and imported into a proprietary data calculation and archiving database (Activity Base by IDBS version 5.0). • 2. Column 1 for each plate reflects total phosphorylation activity of the enzyme in the absence of any inhibiting compound and thus represents 100%. Column 12 reflects any nonspecific phosphorylation/retained radioactivity activity in the absence of inhibiting compound and enzyme.

The subject of data set [1] is Mper1-luc Rat-1 fibroblasts (P2C4). Kind of data set: Cellular Circadian Assay (Mper1-luc reporter period lengthening). Format: cell-based. The settings on record: effective micromolar concentration that induced a 1 hour lengthening of circadian period. An excerpt: The assay consists of Rat-1 fibroblasts stably expressing an Mper1-luc construct, thus enabling the determination of the rhythmic activation of the Mper1 promoter in living cells by repeatedly estimating luciferase activity by monitoring light-output over several days. The repeated measure format of the assay permits accurate and reproducible assessment of the concentration-dependent effects of CKIε inhibitors on circadian rhythm and provides the nexus for relating CKIε inhibition to circadian period alteration.
Cellular Circadian Assay Experimental Procedures
Stable transfection: Rat-1 fibroblast cultures at 30-50% confluence were co-transfected with vectors containing the Zeocin resistance selectable marker for stable transfection and an mPer-1 promoter-driven luciferase reporter gene. After 24-48 hours, cultures were split onto 96 well plates and maintained in growth media supplemented with 50-100 μg/mL Zeocin (Invitrogen #45-0430) for 10-14 days. Zeocin-resistant stable transfectants were assessed for reporter expression by supplementing growth media with 100 μM luciferin (Promega #E1603) and assaying luciferase activity on a TopCount scintillation counter (Packard Model #C384V00). […] Mper1-luc Rat-1 fibroblasts clone P2C4 was selected for compound testing. […] After synchronization, cultures were rinsed with 100 μL EMEM (Celigro #10-010-CV) for 10 minutes at room temperature. […] Compounds tested for circadian effects were added to CO2-independent media in 0.3% DMSO (final concentration). […] In Vivo luciferase activity was estimated by measuring relative light output on a TopCount scintillation counter (Packard Model #C384V00). Plates were transferred from incubator to reader using an ORCA robotic arm (Beckman Instruments) and SAMI-NT automated scheduling software (Version 3.3; SAGIAN/Beckman Instruments). Data Analysis: Microsoft Excel and XLfit (Version 2.0.9; IDBS) were used to import, manipulate and graph data. Period analysis was performed either by determining the interval between relative light output minima over several days or by Fourier Transform. […] Potency is reported as EC≡t+1h, which is presented as the effective micromolar concentration that induced a 1 hour lengthening of period. The data was analyzed by fitting a hyperbolic curve to the data expressed as period change (y-axis) versus the concentration of test compound (x-axis) in XLfit and the EC[…]t+1h was interpolated from this curve.

The term pIC50 denotes −log10 of the IC50, conventionally taken in molar units. By melting point is commonly meant the temperature of the solid-liquid transition.

pIC50: −log10 of the molar value. Where two headings read alike, the source gives them in different places.

T1 sequence (P49674 whole entry): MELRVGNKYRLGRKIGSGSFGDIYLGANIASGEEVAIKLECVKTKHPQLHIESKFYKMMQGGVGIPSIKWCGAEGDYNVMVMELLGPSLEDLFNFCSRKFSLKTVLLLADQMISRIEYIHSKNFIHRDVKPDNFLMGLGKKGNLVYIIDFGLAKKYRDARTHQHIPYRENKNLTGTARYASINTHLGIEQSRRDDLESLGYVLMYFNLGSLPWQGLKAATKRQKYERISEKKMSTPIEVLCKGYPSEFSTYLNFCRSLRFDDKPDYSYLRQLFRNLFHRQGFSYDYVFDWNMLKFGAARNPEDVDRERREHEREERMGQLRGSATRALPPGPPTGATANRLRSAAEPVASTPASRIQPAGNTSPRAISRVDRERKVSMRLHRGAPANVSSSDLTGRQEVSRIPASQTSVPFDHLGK

As to `NC(=O)c1[nH]c2cccnc2c1Sc1ccccc1C(F)(F)F` [Ia-10, 3-(2-Trifluormethylphenylsulfanyl)-1H-pyrrolo[3,2-b]pyridine-2-carboxylic acid amide], the pIC50 at casein kinase 1ε (phosphorylation of casein, 10 μM cold ATP, 2 hours room temperature, * denotes average of 2 or more determinations, read-out: Casein Kinase Iε 33P-ATP Filter Plate Assay IC50) is 5.54. In data set [1], the “Cell Assay ECΔτ+1h” value was determined as 2.94 µM.
`COc1cccc(Sc2c(C(N)=O)[nH]c3cccnc23)c1` [Ia-15, 3-(3-Methoxy-phenylsulfanyl)-1H-pyrrolo[3,2-b]pyridine-2-carboxylic acid amide] gave a pIC50 on casein kinase 1ε of 6.96. In addition, in data set [1], the “Cell Assay ECΔτ+1h” value is 1.1 µM.
Take `NC(=O)c1[nH]c2cccnc2c1Sc1ccccc1` [Ia-1, 3-Phenylsulfanyl-1H-pyrrolo[3,2-b]pyridine-2-carboxylic acid amide]: the melting point is 251 °C. Also, the pIC50 at casein kinase 1ε is 7.44. For the same molecule, the “Cell Assay ECΔτ+1h” value in data set [1] came to 0.27 µM.
In turn, `NC(=O)c1[nH]c2cccnc2c1Sc1ccccc1Cl` [Ia-5, 3-(2-Chlorophenylsulfanyl)-1H-pyrrolo[3,2-b]pyridine-2-carboxylic acid amide] had a negative-log IC50 (pIC50) on casein kinase 1ε of 5.19. In data set [1], the “Cell Assay ECΔτ+1h” value worked out at 1.13 µM.
For `NC(=O)c1[nH]c2cccnc2c1Sc1ccccc1N` [Ia-12, 3-(2-Aminophenylsulfanyl)-1H-pyrrolo[3,2-b]pyridine-2-carboxylic acid amide], the negative logarithm of the IC50 (pIC50) against casein kinase 1ε is 7.44. For the same molecule, the “Cell Assay ECΔτ+1h” value in data set [1] stood at 0.44 µM.
Taken in the same sequence, the figures for `NC(=O)c1[nH]c2cccnc2c1Sc1ccccc1F` [Ia-8, 3-(2-Fluorophenylsulfanyl)-1H-pyrrolo[3,2-b]pyridine-2-carboxylic acid amide] were 6.27 and 0.75 µM.
Taken in the same sequence, the figures for `Cc1cccc(Sc2c(C(N)=O)[nH]c3cccnc23)c1` [Ia-22, 3-m-Tolylsulfanyl-1H-pyrrolo[3,2-b]pyridine-2-carboxylic acid amide] were 7.14 and more than 10 µM.
Turning to `NC(=O)c1[nH]c2cccnc2c1Sc1cccc(F)c1` [Ia-2, 3-(3-Fluorophenylsulfanyl)-1H-pyrrolo[3,2-b]pyridine-2-carboxylic acid amide], the melting point lay in the range of 235 to 237 °C. Moreover, the pIC50 against casein kinase 1ε was 7.13. Further, the “Cell Assay ECΔτ+1h” value in data set [1] turned out to be 0.51 µM.
`NC(=O)c1[nH]c2cccnc2c1Sc1cccc(Cl)c1` [Ia-3, 3-(3-Chlorophenylsulfanyl)-1H-pyrrolo[3,2-b]pyridine-2-carboxylic acid amide] had a melting point of 246.5 to 248 °C. In addition, the pIC50 against casein kinase 1ε is 7.59. Further, in data set [1], the “Cell Assay ECΔτ+1h” value amounted to 0.31 µM.
In turn, `NC(=O)c1[nH]c2cccnc2c1Sc1ccc(Cl)cc1Cl` [Ia-7, 3-(2,4-Dichlorophenylsulfanyl)-1H-pyrrolo[3,2-b]pyridine-2-carboxylic acid amide] showed a melting point of 266 °C. The molecule also had a pIC50 against casein kinase 1ε of less than 5.00.
`NC(=O)c1[nH]c2cccnc2c1Sc1cccc2cccnc12` [Ia-25, 3-(Quinolin-8-ylsulfanyl)-1H-pyrrolo[3,2-b]pyridine-2-carboxylic acid amide]: the pIC50 against casein kinase 1ε is 5.81. Moreover, the “Cell Assay ECΔτ+1h” value in data set [1] is 2.26 µM.
Taken in the same sequence, the figures for `Cc1ccc(Sc2c(C(N)=O)[nH]c3cccnc23)cc1` [Ia-20, 3-p-Tolylsulfanyl-1H-pyrrolo[3,2-b]pyridine-2-carboxylic acid amide] were 6.58 and more than 10 µM.
On to `NC(=O)c1[nH]c2cccnc2c1Sc1ccc(Cl)cc1` [Ia-6, 3-(4-Chlorophenylsulfanyl)-1H-pyrrolo[3,2-b]pyridine-2-carboxylic acid amide], for which the melting point came out at 266 °C. The same molecule showed a pIC50 on casein kinase 1ε of 6.31. In addition, the “Cell Assay ECΔτ+1h” value in data set [1] worked out at 13.8 µM.
`NC(=O)c1[nH]c2cccnc2c1Sc1cccc(Br)c1` [Ia-4, 3-(3-Bromophenylsulfanyl)-1H-pyrrolo[3,2-b]pyridine-2-carboxylic acid amide] had a pIC50 on casein kinase 1ε of 7.60. Also, the “Cell Assay ECΔτ+1h” value in data set [1] was 0.12 µM.
Taken in the same sequence, the figures for `NC(=O)c1[nH]c2cccnc2c1Sc1cccc([N+](=O)[O-])c1` [Ia-18, 3-(3-Nitro-phenylsulfanyl)-1H-pyrrolo[3,2-b]pyridine-2-carboxylic acid amide] were 6.73 and more than 10 µM.

These data come from patent US7626027B2, “Substituted 1H-pyrrolo[2,3-c]pyridine-2-carboxamides and related analogs as inhibitors of casein kinase Iε” (Aventis Pharmaceuticals Inc, priority 2003, dated 2009).
